From patent US20110195949A1, “2-BENZOTHIOPHENYL- AND 2-NAPHTHYL-OXAZOLIDINONES AND THEIR AZAISOSTERE ANALOGUES AS ANTIBACTERIAL AGENTS” (ACTELION PHARMACEUTICALS LTD., priority 2008, published 2011)
Values after ≈ are worked out from the molar mass of the structure shown.

Tested on: M. catarrhalis A894
Test: Minimal inhibitory concentration (MIC), microdilution method in cation-adjusted Mueller-Hinton Broth (CLSI M7-A7)
Type: cell-based
Settings: Moraxella catarrhalis, strain A894
Procedure: Minimal inhibitory concentrations (MICs; mg/L) were determined in cation-adjusted Mueller-Hinton Broth by a microdilution method following the description given in “Methods for Dilution Antimicrobial Susceptibility Tests for Bacteria that Grow Aerobically”, Approved standard, 7th ed., Clinical and Laboratory Standards Institute (CLSI) Document M7-A7, Wayne, Pa., USA, 2006. All Example compounds were tested against several Gram positive and Gram negative bacteria such as S. aureus, E. faecalis, S. pneumoniae, M. catarrhalis, A. baumanii, E. coli or P. aeruginosa.

SMILES | MIC
O=C1CSc2ccc(N3CC(CCCNCc4ccc5ccccc5n4)OC3=O)cc2N1 (racemic) [Example 1, rac-6-(2-oxo-5-{3-[(quinolin-2-ylmethyl)-amino]-propyl}-oxazolidin-3-yl)-4H-benzo[1,4]thiazin-3-one] | 0.5 µg/mL (≈ 1.11 µM)
O=C1CSc2ccc(N3CC(CCCNCc4ccc5ccc(F)cc5n4)OC3=O)cc2N1 (racemic) [Example 2, rac-6-(5-{3-[(7-fluoro-quinolin-2-ylmethyl)-amino]-propyl}-2-oxo-oxazolidin-3-yl)-4H-benzo[1,4]thiazin-3-one] | 0.031 µg/mL (≈ 0.0664 µM)
O=C1CSc2ccc(N3CC(CCCNCc4cc5ncccc5cc4F)OC3=O)cc2N1 (racemic) [Example 6, rac-6-(5-{3-[(6-fluoro-quinolin-7-ylmethyl)-amino]-propyl}-2-oxo-oxazolidin-3-yl)-4H-benzo[1,4]thiazin-3-one] | ≤ 0.031 µg/mL
O=C1CSc2ccc(N3CC(CCCNCc4ccc5c(F)cccc5n4)OC3=O)cc2N1 (racemic) [Example 7, rac-6-(5-{3-[(5-fluoro-quinolin-2-ylmethyl)-amino]-propyl}-2-oxo-oxazolidin-3-yl)-4H-benzo[1,4]thiazin-3-one] | 0.063 µg/mL (≈ 0.135 µM)
Cc1c(CNCCCC2CN(c3ccc4c(c3)NC(=O)CS4)C(=O)O2)sc2ccccc12 (racemic) [Example 8, rac-6-(5-{3-[(3-methyl-benzo[b]thiophen-2-ylmethyl)-amino]-propyl}-2-oxo-oxazolidin-3-yl)-4H-benzo[1,4]thiazin-3-one] | 0.063 µg/mL (≈ 0.135 µM)
O=C1CSc2ccc(N3CC(CCCNCc4cc5cccnc5s4)OC3=O)cc2N1 (racemic) [Example 9, rac-6-(2-oxo-5-{3-[(thieno[2,3-b]pyridin-2-ylmethyl)-amino]-propyl}-oxazolidin-3-yl)-4H-benzo[1,4]thiazin-3-one] | 0.125 µg/mL (≈ 0.275 µM)
O=C1CSc2ccc(N3CC(CCCNCc4cc5nccnc5s4)OC3=O)cc2N1 (racemic) [Example 10, rac-6-(2-oxo-5-{3-[(thieno[2,3-b]pyrazin-6-ylmethyl)-amino]-propyl}-oxazolidin-3-yl)-4H-benzo[1,4]thiazin-3-one] | 0.25 µg/mL (≈ 0.549 µM)
O=C1CSc2ccc(N3CC(CCCNCc4cnc5ccccc5c4)OC3=O)cc2N1 (racemic) [Example 11, rac-6-(2-oxo-5-{3-[(quinolin-3-ylmethyl)-amino]-propyl}-oxazolidin-3-yl)-4H-benzo[1,4]thiazin-3-one] | 4 µg/mL (≈ 8.92 µM)
O=C1CSc2ccc(N3CC(CCCNCc4ccc5ccccc5c4)OC3=O)cc2N1 (racemic) [Example 12, rac-6-(5-{3-[(naphthalen-2-ylmethyl)-amino]-propyl}-2-oxo-oxazolidin-3-yl)-4H-benzo[1,4]thiazin-3-one] | 1 µg/mL (≈ 2.23 µM)
O=C1CSc2ccc(N3CC(CCCNCc4ccc5cccnc5c4)OC3=O)cc2N1 (racemic) [Example 13, rac-6-(2-oxo-5-{3-[(quinolin-7-ylmethyl)-amino]-propyl}-oxazolidin-3-yl)-4H-benzo[1,4]thiazin-3-one] | 0.5 µg/mL (≈ 1.11 µM)
O=C1CSc2ccc(N3CC(CCCNCc4ccc5ncccc5c4)OC3=O)cc2N1 (racemic) [Example 14, rac-6-(2-oxo-5-{3-[(quinolin-6-ylmethyl)-amino]-propyl}-oxazolidin-3-yl)-4H-benzo[1,4]thiazin-3-one] | 1 µg/mL (≈ 2.23 µM)
O=C1COc2ccc(N3C[C@@H](CCCNCc4ccc5ccc(F)cc5n4)OC3=O)cc2N1 [Example 3, 6-((R)-5-{3-[(7-fluoro-quinolin-2-ylmethyl)-amino]-propyl}-2-oxo-oxazolidin-3-yl)-4H-benzo[1,4]oxazin-3-one] | ≤ 0.031 µg/mL
O=C1COc2ccc(N3C[C@@H](CCCNCc4ccc5ccccc5n4)OC3=O)cc2N1 [Example 4, 6-((R)-2-oxo-5-{3-[(quinolin-2-ylmethyl)-amino]-propyl}-oxazolidin-3-yl)-4H-benzo[1,4]oxazin-3-one] | 0.063 µg/mL (≈ 0.146 µM)
O=C1CSc2ccc(N3C[C@H](CNCCCc4ccc5ccccc5n4)OC3=O)cc2N1 [Example 5, 6-{(S)-2-oxo-5-[(3-quinolin-2-yl-propylamino)-methyl]-oxazolidin-3-yl}-4H-benzo[1,4]thiazin-3-one] | ≤ 0.031 µg/mL
O=C1CSc2ccc(N3C[C@@H](CCNCc4ccc5ccccc5n4)OC3=O)cc2N1 [Example 15, 6-((R)-2-oxo-5-{2-[(quinolin-2-ylmethyl)-amino]-ethyl}-oxazolidin-3-yl)-4H-benzo[1,4]thiazin-3-one] | ≤ 0.031 µg/mL
O=C1CSc2ccc(N3C[C@@H](CCNCCc4ccc5ccccc5n4)OC3=O)cc2N1 [Example 16, 6-{(R)-2-oxo-5-[2-(2-quinolin-2-yl-ethylamino)-ethyl]-oxazolidin-3-yl}-4H-benzo[1,4]thiazin-3-one] | ≤ 0.031 µg/mL
COc1ccc2ccc(OC[C@@H]3CCN(C[C@@H]4CN(c5ccc6c(c5)NC(=O)CS6)C(=O)O4)C3)nc2c1 [Example 17, 6-{(R)-5-[(R)-3-(7-methoxy-quinolin-2-yloxymethyl)-pyrrolidin-1-ylmethyl]-2-oxo-oxazolidin-3-yl}-4H-benzo[1,4]thiazin-3-one] | ≤ 0.031 µg/mL
COc1ccc2ccc(OCC3CCN(C[C@@H]4CN(c5ccc6c(c5)NC(=O)CS6)C(=O)O4)CC3)nc2c1 [Example 18, 6-{(R)-5-[4-(7-methoxy-quinolin-2-yloxymethyl)-piperidin-1-ylmethyl]-2-oxo-oxazolidin-3-yl}-4H-benzo[1,4]thiazin-3-one] | 0.5 µg/mL (≈ 0.935 µM)
COc1ccc2ncc(OCC3CN(C[C@@H]4CN(c5ccc6c(c5)OCCO6)C(=O)O4)C3)nc2c1 [Example 19, (R)-3-(2,3-dihydro-benzo[1,4]dioxin-6-yl)-5-[3-(7-methoxy-quinoxalin-2-yloxymethyl)-azetidin-1-ylmethyl]-oxazolidin-2-one] | 0.25 µg/mL (≈ 0.522 µM)
COc1ccc2ncc(OCC3CN(CC[C@@H]4CN(c5ccc6c(c5)NC(=O)CS6)C(=O)O4)C3)nc2c1 [Example 20, 6-((R)-5-{2-[3-(7-methoxy-quinoxalin-2-yloxymethyl)-azetidin-1-yl]-ethyl}-2-oxo-oxazolidin-3-yl)-4H-benzo[1,4]thiazin-3-one] | ≤ 0.031 µg/mL
COc1ccc2ncc(OCC3CN(C[C@@H]4CN(c5ccc6c(c5)NC(=O)CS6)C(=O)O4)C3)nc2c1 [Example 21, 6-{(R)-5-[3-(7-methoxy-quinoxalin-2-yloxymethyl)-azetidin-1-ylmethyl]-2-oxo-oxazolidin-3-yl}-4H-benzo[1,4]thiazin-3-one] | ≤ 0.031 µg/mL
COc1ccc2ncc(OCC3CN(C[C@@H]4CN(c5ccc6c(c5)NC(=O)CO6)C(=O)O4)C3)nc2c1 [Example 22, 6-{(R)-5-[3-(7-methoxy-quinoxalin-2-yloxymethyl)-azetidin-1-ylmethyl]-2-oxo-oxazolidin-3-yl}-4H-benzo[1,4]oxazin-3-one] | ≤ 0.031 µg/mL
COc1ccc2ccc(OC3CC(NC[C@@H]4CN(c5ccc6c(c5)NC(=O)CS6)C(=O)O4)C3)nc2c1 (stereo partly drawn) [Example 23, 6-((R)-5-{[3-(7-methoxy-quinolin-2-yloxy)-cyclobutylamino]-methyl}-2-oxo-oxazolidin-3-yl)-4H-benzo[1,4]thiazin-3-one] | ≤ 0.031 µg/mL
O=C1CSc2ccc(N3C[C@@H](CNCCc4ccc5ccccc5n4)OC3=O)cc2N1 [Example 24, 6-{(R)-2-oxo-5-[(2-quinolin-2-yl-ethylamino)-methyl]-oxazolidin-3-yl}-4H-benzo[1,4]thiazin-3-one] | 0.031 µg/mL (≈ 0.0713 µM)
O=C1CSc2ccc(N3C[C@@H](CCCNCCc4ccc5ccccc5n4)OC3=O)cc2N1 [Example 25, 6-{(R)-2-oxo-5-[3-(2-quinolin-2-yl-ethylamino)-propyl]-oxazolidin-3-yl}-4H-benzo[1,4]thiazin-3-one] | 0.125 µg/mL (≈ 0.27 µM)
O=C1COc2ccc(N3C[C@@H](CCNCCNc4ccc5ccccc5n4)OC3=O)cc2N1 [Example 26, 6-((R)-2-oxo-5-{2-[2-(quinolin-2-ylamino)-ethylamino]-ethyl}-oxazolidin-3-yl)-4H-benzo[1,4]oxazin-3-one] | 0.25 µg/mL (≈ 0.559 µM)
O=C1CSc2ccc(N3C[C@@H](CNCCNCc4ccc5ccccc5n4)OC3=O)cc2N1 [Example 27, 6-[(R)-2-oxo-5-({2-[(quinolin-2-ylmethyl)-amino]-ethylamino}-methyl)-oxazolidin-3-yl]-4H-benzo[1,4]thiazin-3-one] | 1 µg/mL (≈ 2.16 µM)
O=C1CSc2ccc(N3C[C@@H](CN4CCN(Cc5ccc6ccccc6n5)CC4)OC3=O)cc2N1 [Example 28, 6-[(R)-2-oxo-5-(4-quinolin-2-ylmethyl-piperazin-1-ylmethyl)-oxazolidin-3-yl]-4H-benzo[1,4]thiazin-3-one] | 0.063 µg/mL (≈ 0.129 µM)
COc1cnc2cc(CNCCC[C@H]3CN(c4ccc5c(c4)NC(=O)CS5)C(=O)O3)c(F)cc2n1 [Example 29, 6-((S)-5-{3-[(7-fluoro-2-methoxy-quinoxalin-6-ylmethyl)-amino]-propyl}-2-oxo-oxazolidin-3-yl)-4H-benzo[1,4]thiazin-3-one] | ≤ 0.031 µg/mL
